Laboratory results from patent publication US11267824B2, “Inhibitors of indoleamine 2,3-dioxygenase and/or tryptophan 2,3-dioxygenase” (IDORSIA PHARMACEUTICALS LTD, priority 2017, dated 2022).

How the values were obtained:
[1] = molecular target: Recombinant human TDO comprising amino acids 19-407 (Homo sapiens (Human), UniProt P48775); assay: TDO2 enzymatic assay (TDO inhibitory activity); format: biochemical; conditions: 15 nM enzyme, 200 μM L-tryptophan, pH7, 30 min pre-incubation, NFK quantified by LCMS; mean values if measured multiple times; read-out: hTDO activity (IC50 in nM)
Outline: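 His-tagged enzyme (15 nM, E. coli-expressed) in pH 7 phosphate buffer with ascorbate, catalase, BSA, Tween 20, 0.6% DMSO; 30 min RT pre-incubation with compound (10 μM–0.5 nM), then 200 μM L-tryptophan for 30 min RT. N′-formylkynurenine quantified by LCMS against deuterated tryptophan; IC50 by four-parameter fit, duplicates.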

[2] = molecular target: Recombinant full-length human IDO1 (Homo sapiens (Human), UniProt P14902); assay: IDO1 enzymatic assay (IDO inhibitory activity); format: biochemical; conditions: 2 nM enzyme, 5 μM L-tryptophan, pH6.5, 30 min pre-incubation, NFK quantified by LCMS; mean values if measured multiple times; read-out: hIDO activity (IC50 in nM)
Outline: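 N-His-tagged enzyme from E. coli at 2 nM in 37.5 mM phosphate pH6.5 with ascorbate, methylene blue, catalase; compounds 10 μM–0.5 nM, 0.6% DMSO, pre-incubated 30 min RT, then 5 μM L-tryptophan for 30 min RT. NFK quantified by LCMS against d5-tryptophan; IC50 from duplicate four-parameter fit, means where repeated.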

Recombinant human TDO comprising amino acids 19-407, sequence (P48775 19-406 limits assumed): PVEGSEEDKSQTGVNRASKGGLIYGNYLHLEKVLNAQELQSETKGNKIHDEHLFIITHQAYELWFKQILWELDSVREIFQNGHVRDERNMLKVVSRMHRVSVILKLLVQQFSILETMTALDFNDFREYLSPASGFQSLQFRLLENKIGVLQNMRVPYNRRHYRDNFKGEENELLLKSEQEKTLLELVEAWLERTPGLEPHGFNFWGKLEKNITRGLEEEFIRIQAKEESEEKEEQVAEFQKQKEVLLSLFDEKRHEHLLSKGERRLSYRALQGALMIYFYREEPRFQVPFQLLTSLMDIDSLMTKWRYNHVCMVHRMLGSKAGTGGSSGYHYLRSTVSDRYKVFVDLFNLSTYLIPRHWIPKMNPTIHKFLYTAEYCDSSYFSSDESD
Recombinant full-length human IDO1, sequence (P14902 whole entry): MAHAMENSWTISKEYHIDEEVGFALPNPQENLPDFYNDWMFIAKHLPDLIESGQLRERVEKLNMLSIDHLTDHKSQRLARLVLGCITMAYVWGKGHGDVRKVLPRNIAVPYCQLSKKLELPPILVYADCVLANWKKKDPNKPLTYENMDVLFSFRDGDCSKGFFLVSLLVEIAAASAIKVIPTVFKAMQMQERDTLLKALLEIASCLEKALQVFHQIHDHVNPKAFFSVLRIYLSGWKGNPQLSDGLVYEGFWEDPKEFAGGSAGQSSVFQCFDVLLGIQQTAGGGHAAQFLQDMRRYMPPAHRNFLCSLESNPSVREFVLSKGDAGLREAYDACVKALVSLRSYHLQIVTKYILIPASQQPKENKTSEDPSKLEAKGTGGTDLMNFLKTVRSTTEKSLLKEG

| IC50 [1] | IC50 [2] | Structure (SMILES) |
| --- | --- | --- |
| 2260 nM | 415 nM | CC1(c2sc3cncn3c2C(O)C2CCCCC2)CC1 (racemic) [Example 170, rac-Cyclohexyl-[2-(1-methyl-cyclopropyl)-imidazo[5,1-b]thiazol-3-yl]-methanol] |
| 1580 nM | 90.3 nM | OC(c1cccs1)c1c(C2CC2)sc2cncn12 (racemic) [Example 171, rac-(2-Cyclopropyl-imidazo[5,1-b]thiazol-3-yl)-thiophen-2-yl-methanol] |
| 28.7 nM | 4.97 nM | CCc1sc2cncn2c1C(O)C1(C)CCCC1 (racemic) [Example 172, rac-(2-Ethyl-imidazo[5,1-b]thiazol-3-yl)-(1-methyl-cyclopentyl)-methanol] |
| 1770 nM | 77.3 nM | OC(c1ccsc1)c1c(C2CC2)sc2cncn12 (racemic) [Example 173, rac-(2-Cyclopropyl-imidazo[5,1-b]thiazol-3-yl)-thiophen-3-yl-methanol] |
| 37.9 nM | 32.4 nM | Cc1sc2cncn2c1C(O)C1(C)CCCCC1 (racemic) [Example 174, rac-(1-Methyl-cyclohexyl)-(2-methyl-imidazo[5,1-b]thiazol-3-yl)-methanol] |
| 66.8 nM | 7.04 nM | CCc1sc2cncn2c1C(O)C1(C)CCCCC1 (racemic) [Example 175, rac-(2-Ethyl-imidazo[5,1-b]thiazol-3-yl)-(1-methyl-cyclohexyl)-methanol] |
| 195 nM | 59.3 nM | CCc1sc2cncn2c1C(O)c1ccccc1 (racemic) [Example 176, rac-(2-Ethyl-imidazo[5,1-b]thiazol-3-yl)-phenyl-methanol] |
| 1950 nM | 199 nM | Cc1sc2cncn2c1C(O)CC1CCC(C)(C)CC1 (racemic) [Example 177, rac-2-(4,4-Dimethyl-cyclohexyl)-1-(2-methyl-imidazo[5,1-b]thiazol-3-yl)-ethanol] |
| 1290 nM | 118 nM | CCc1sc2cncn2c1C(O)CC1CCC(C)(C)CC1 (racemic) [Example 178, rac-2-(4,4-Dimethyl-cyclohexyl)-1-(2-ethyl-imidazo[5,1-b]thiazol-3-yl)-ethanol] |
| 203 nM | 28.9 nM | CCc1sc2cncn2c1C(O)CC1CCCC1 (racemic) [Example 179, rac-2-Cyclopentyl-1-(2-ethyl-imidazo[5,1-b]thiazol-3-yl)-ethanol] |
| 72.9 nM | 6.65 nM | CCc1sc2cncn2c1C(O)C1CC(C)(C)C1 (racemic) [Example 180, rac-(3,3-Dimethyl-cyclobutyl)-(2-ethyl-imidazo[5,1-b]thiazol-3-yl)-methanol] |
| 885 nM | 965 nM | OC(c1c(-c2cccc(F)c2)sc2cncn12)C1CCCCC1 (racemic) [Example 181, rac-Cyclohexyl-[2-(3-fluoro-phenyl)-imidazo[5,1-b]thiazol-3-yl]-methanol] |
| 239 nM | 441 nM | OC(c1c(-c2ccccc2F)sc2cncn12)C1CCCCC1 (racemic) [Example 182, rac-Cyclohexyl-[2-(2-fluoro-phenyl)-imidazo[5,1-b]thiazol-3-yl]-methanol] |
| 573 nM | 190 nM | Cc1sc2cncn2c1C(O)CC1CCCC1 (racemic) [Example 183, rac-2-Cyclopentyl-1-(2-methyl-imidazo[5,1-b]thiazol-3-yl)-ethanol] |
| 1760 nM | 115 nM | OC(c1c(C2(F)CC2)sc2cncn12)C1CCCCC1 (racemic) [Example 184, rac-Cyclohexyl-[2-(1-fluoro-cyclopropyl)-imidazo[5,1-b]thiazol-3-yl]-methanol] |
| > 10200 nM | 111 nM | CC(C)n1cc(C(O)c2c(C3CC3)sc3cncn23)cn1 (racemic) [Example 188, rac-(2-Cyclopropyl-imidazo[5,1-b]thiazol-3-yl)-(1-isopropyl-1H-pyrazol-4-yl)-methanol] |
| > 10200 nM | 112 nM | OC(c1cnn(C2CCCC2)c1)c1c(C2CC2)sc2cncn12 (racemic) [Example 189, rac-(1-Cyclopentyl-1H-pyrazol-4-yl)-(2-cyclopropyl-imidazo[5,1-b]thiazol-3-yl)-methanol] |
| 891 nM | 61.2 nM | OC(c1c(C2CC2)sc2cncn12)C12CCC(c3ccccc3)(C1)C2 (racemic) [Example 190, rac-(2-Cyclopropyl-imidazo[5,1-b]thiazol-3-yl)-(4-phenyl-bicyclo[2.1.1]hex-1-yl)-methanol] |
| 1270 nM | 28.6 nM | OC(c1c(C2CC2)sc2cncn12)C12CC(c3ccccc3)(C1)C2 (racemic) [Example 191, rac-(2-Cycclopropyl-imidazo[5,1-b]thiazol-3-yl)-(3-phenyl-bicyclo[1.1.1]pent-1-yl)-methanol] |
| > 10200 nM | 590 nM | Cn1cc(C(O)c2c(C3CC3)sc3cncn23)nn1 (racemic) [Example 192, rac-(2-Cyclopropyl-imidazo[5,1-b]thiazol-3-yl)-(1-methyl-1H-[1,2,3]triazol-4-yl)-methanol] |
| > 10200 nM | 498 nM | CCn1cc(C(O)c2c(C3CC3)sc3cncn23)nn1 (racemic) [Example 193, rac-(2-Cyclopropyl-imidazo[5,1-b]thiazol-3-yl)-(1-ethyl-1H-[1,2,3]triazol-4-yl)-methanol] |
| > 10200 nM | 304 nM | CC(C)n1cc(C(O)c2c(C3CC3)sc3cncn23)nn1 (racemic) [Example 194, rac-(2-Cyclopropyl-imidazo[5,1-b]thiazol-3-yl)-(1-isopropyl-1H-[1,2,3]triazol-4-yl)-methanol] |
| > 10200 nM | 96.1 nM | OC(c1cn(C2CCCC2)nn1)c1c(C2CC2)sc2cncn12 (racemic) [Example 195, rac-(1-Cyclopentyl-1H-[1,2,3]triazol-4-yl)-(2-cyclopropyl-imidazo[5,1-b]thiazol-3-yl)-methanol] |
| > 10200 nM | 183 nM | OC(c1cn(C2CCC2)nn1)c1c(C2CC2)sc2cncn12 (racemic) [Example 196, rac-(1-Cyclobutyl-1H-[1,2,3]triazol-4-yl)-(2-cyclopropyl-imidazo[5,1-b]thiazol-3-yl)-methanol] |
| > 10200 nM | 287 nM | OC(c1cn(C2CCCCC2)nn1)c1c(C2CC2)sc2cncn12 (racemic) [Example 197, rac-(1-Cyclohexyl-1H-[1,2,3]triazol-4-yl)-(2-cyclopropyl-imidazo[5,1-b]thiazol-3-yl)-methanol] |
| > 10200 nM | 116 nM | CCc1sc2cncn2c1C(O)c1cn(C2CCCC2)nn1 (racemic) [Example 198, rac-(1-Cyclopentyl-1H-[1,2,3]triazol-4-yl)-(2-ethyl-imidazo[5,1-b]thiazol-3-yl)-methanol] |
| > 10200 nM | 835 nM | Cc1sc2cncn2c1C(O)c1cn(C2CCCC2)nn1 (racemic) [Example 199, rac-(1-Cyclopentyl-1H-[1,2,3]triazol-4-yl)-(2-methyl-imidazo[5,1-b]thiazol-3-yl)-methanol] |
| > 10200 nM | 1950 nM | OC(c1c[nH]nn1)c1c(C2CC2)sc2cncn12 (racemic) [Example 200, rac-(2-Cyclopropyl-imidazo[5,1-b]thiazol-3-yl)-(1H-[1,2,3]triazol-4-yl)-methanol] |
